Like-named read-outs stand apart in the source and are kept apart here.
Key:
[1] = target: MLK1 (Homo sapiens (Human), UniProt P80192); assay: Evaluation of inhibitory activity of enzyme units, MLK1 ([γ-33P]-ATP filter assay); type: biochemical
[2] = test system: acute myeloid leukemia cell line U937; assay: Cancer cell proliferation inhibitory activity evaluation 2 (CCK-8), U937; type: cell-based; details: Homo sapiens, read-out: Cancer cell proliferation inhibitory activity U937
[3] = test system: gastric cancer cell line AGS; assay: Cancer cell proliferation inhibitory activity evaluation 2 (CCK-8), AGS; type: cell-based; details: Homo sapiens, read-out: Cancer cell proliferation inhibitory activity AGS
[4] = target: MLK3 (Homo sapiens (Human), UniProt Q16584); assay: Evaluation of inhibitory activity of enzyme units, MLK3 ([γ-33P]-ATP filter assay); details: read-out: IC50(nM) MLK3
[5] = target: LRRK2 mutant (G2019S) (Homo sapiens (Human), UniProt Q5S007, G2019S); assay: Evaluation of inhibitory activity against LRRK2 (affinity bead competition binding), G2019S mutant; details: read-out: Residual active values (%) LRRK2(G2019S); for remaining binding at 0.1 µM: 100 nM; for remaining binding at 0.5 µM: 500 nM
Procedure: (§1) In order to identify the activity inhibitory effect on the LRRK2 wild-type and LRRK2 mutant (G2019S) kinase of the example compound according to the present disclosure, BL21-derived E. coli bacteria (E. coli) were cultured in a 24-well plate until the growth phase (log phase). After culturing, T7 phage tagged with LRRK2 wild-type or LRRK2 mutant (G2019S) was used to infect the multiplicity of infection (MOI) at 0.4. Thereafter, the E. coli bacteria were stirred at 32° C. for 90 to 150 minutes to allow dissolution. The lysate of E. coli bacteria was centrifuged (6,000×g) and filtered (0.2 μm), and the obtained tagged T7 phage […] a DNA-tagged kinase protein (LRRK2 or LRRK2 G2019S) was obtained.
(§2) After blocking the biotinylated ligand with extra biotin, it is washed with Pierce's buffer, SeaBlock (1% BSA, 0.05% Tween 20, 1 mM DTT) to remove unbound ligand and reduce non-specific binding.
(§3) The compound was prepared at a concentration of 40× in 100% DMSO and used after dilution, and all binding reactions were performed in a final volume of 0.02 ml in a 384-well plate.
(§4) The activity inhibitory effect on the LRRK2 wild-type and LRRK2 mutant (G2019S) kinases of the example compounds according to the present disclosure was measured and shown in Table 10 below.

[6] = target: LRRK2 wild-type (Homo sapiens (Human), UniProt Q5S007); assay: Evaluation of inhibitory activity against LRRK2 (affinity bead competition binding), wild-type; details: read-out: Residual active values (%) LRRK2; for remaining binding at 0.1 µM: 100 nM; for remaining binding at 0.5 µM: 500 nM
Procedure: as §1, §2, §3, §4

[7] = test system: acute lymphoblastic leukemia cell line Jurkat; assay: Cancer cell proliferation inhibitory activity evaluation 2 (CCK-8), Jurkat; type: cell-based; details: Homo sapiens
[8] = target: MLK2 (Homo sapiens (Human), UniProt Q02779); assay: Evaluation of inhibitory activity of enzyme units, MLK2 ([γ-33P]-ATP filter assay); type: biochemical
[9] = test system: gastric cancer cell line Hs746T; assay: Cancer cell proliferation inhibitory activity evaluation 2 (CCK-8), Hs746T; type: cell-based; details: Homo sapiens
[10] = test system: human lung cancer cell line A549; assay: Cancer cell proliferation inhibitory activity evaluation 2 (CCK-8), A549; type: cell-based
[11] = test system: acute myeloid leukemia cell line U937; assay: Cancer cell proliferation inhibitory activity evaluation 1 (CCK-8), U937; type: cell-based; details: Homo sapiens, U-937; 10 μM, 72 hours, CCK-8 (Table 2); read-out: Cancer cell proliferation inhibitory activity U937
Procedure: (§5) In order to identify whether the compound has anticancer activity, the human breast cancer cell line MDA-MB-231, the colorectal cancer cell line HT-29, the acute myeloid leukemia cell line U937, and the chronic myeloid leukemia cell line K562 were used. The cell line was cultured using RPMI-1640 medium containing 10% fetal bovine serum. Welgene products were used as the medium, and hyclone products were used for fetal bovine serum, and 1% of antibiotics for cell culture from Gibco were used as the culture medium.

[12] = test system: human breast cancer cell line MDA-MB-231; assay: Cancer cell proliferation inhibitory activity evaluation 1 (CCK-8), MDA-MB-231; type: cell-based; details: MDA-MB-231, 10 μM, 72 hours, CCK-8, read-out: Cancer cell proliferation inhibitory activity MDAMB231
Procedure: as §5

[13] = test system: colorectal cancer cell line HT-29; assay: Cancer cell proliferation inhibitory activity evaluation 1 (CCK-8), HT-29; type: cell-based; details: Homo sapiens, HT-29; 10 μM, 72 hours, CCK-8; read-out: Cancer cell proliferation inhibitory activity HT29
Procedure: as §5

[14] = test system: Fibronectin-1; assay: Fibrosis inhibition evaluation 2, palmitic acid-induced HepG2, real-time PCR, Fibronectin-1
[15] = test system: chronic myeloid leukemia cell line K562; assay: Cancer cell proliferation inhibitory activity evaluation 1 (CCK-8), K562; type: cell-based; details: Homo sapiens, K562; 10 μM, 72 hours, CCK-8; read-out: Cancer cell proliferation inhibitory activity K562
Procedure: as §5

[16] = test system: TGF-β1; assay: Fibrosis inhibition evaluation 2, palmitic acid-induced HepG2, real-time PCR, TGF-β1
[17] = U-937, 10 μM, 72 hours, CCK-8 (Table 3)
[18] = 10 μM, 72 hours, CCK-8, read-out: Cancer cell proliferation inhibitory activity Jurkat
[19] = 72 h, read-out: Cancer cell proliferation inhibitory activity Jurkat

Chain of LRRK2 mutant (G2019S) (Q5S007 whole entry G2019S, looked up): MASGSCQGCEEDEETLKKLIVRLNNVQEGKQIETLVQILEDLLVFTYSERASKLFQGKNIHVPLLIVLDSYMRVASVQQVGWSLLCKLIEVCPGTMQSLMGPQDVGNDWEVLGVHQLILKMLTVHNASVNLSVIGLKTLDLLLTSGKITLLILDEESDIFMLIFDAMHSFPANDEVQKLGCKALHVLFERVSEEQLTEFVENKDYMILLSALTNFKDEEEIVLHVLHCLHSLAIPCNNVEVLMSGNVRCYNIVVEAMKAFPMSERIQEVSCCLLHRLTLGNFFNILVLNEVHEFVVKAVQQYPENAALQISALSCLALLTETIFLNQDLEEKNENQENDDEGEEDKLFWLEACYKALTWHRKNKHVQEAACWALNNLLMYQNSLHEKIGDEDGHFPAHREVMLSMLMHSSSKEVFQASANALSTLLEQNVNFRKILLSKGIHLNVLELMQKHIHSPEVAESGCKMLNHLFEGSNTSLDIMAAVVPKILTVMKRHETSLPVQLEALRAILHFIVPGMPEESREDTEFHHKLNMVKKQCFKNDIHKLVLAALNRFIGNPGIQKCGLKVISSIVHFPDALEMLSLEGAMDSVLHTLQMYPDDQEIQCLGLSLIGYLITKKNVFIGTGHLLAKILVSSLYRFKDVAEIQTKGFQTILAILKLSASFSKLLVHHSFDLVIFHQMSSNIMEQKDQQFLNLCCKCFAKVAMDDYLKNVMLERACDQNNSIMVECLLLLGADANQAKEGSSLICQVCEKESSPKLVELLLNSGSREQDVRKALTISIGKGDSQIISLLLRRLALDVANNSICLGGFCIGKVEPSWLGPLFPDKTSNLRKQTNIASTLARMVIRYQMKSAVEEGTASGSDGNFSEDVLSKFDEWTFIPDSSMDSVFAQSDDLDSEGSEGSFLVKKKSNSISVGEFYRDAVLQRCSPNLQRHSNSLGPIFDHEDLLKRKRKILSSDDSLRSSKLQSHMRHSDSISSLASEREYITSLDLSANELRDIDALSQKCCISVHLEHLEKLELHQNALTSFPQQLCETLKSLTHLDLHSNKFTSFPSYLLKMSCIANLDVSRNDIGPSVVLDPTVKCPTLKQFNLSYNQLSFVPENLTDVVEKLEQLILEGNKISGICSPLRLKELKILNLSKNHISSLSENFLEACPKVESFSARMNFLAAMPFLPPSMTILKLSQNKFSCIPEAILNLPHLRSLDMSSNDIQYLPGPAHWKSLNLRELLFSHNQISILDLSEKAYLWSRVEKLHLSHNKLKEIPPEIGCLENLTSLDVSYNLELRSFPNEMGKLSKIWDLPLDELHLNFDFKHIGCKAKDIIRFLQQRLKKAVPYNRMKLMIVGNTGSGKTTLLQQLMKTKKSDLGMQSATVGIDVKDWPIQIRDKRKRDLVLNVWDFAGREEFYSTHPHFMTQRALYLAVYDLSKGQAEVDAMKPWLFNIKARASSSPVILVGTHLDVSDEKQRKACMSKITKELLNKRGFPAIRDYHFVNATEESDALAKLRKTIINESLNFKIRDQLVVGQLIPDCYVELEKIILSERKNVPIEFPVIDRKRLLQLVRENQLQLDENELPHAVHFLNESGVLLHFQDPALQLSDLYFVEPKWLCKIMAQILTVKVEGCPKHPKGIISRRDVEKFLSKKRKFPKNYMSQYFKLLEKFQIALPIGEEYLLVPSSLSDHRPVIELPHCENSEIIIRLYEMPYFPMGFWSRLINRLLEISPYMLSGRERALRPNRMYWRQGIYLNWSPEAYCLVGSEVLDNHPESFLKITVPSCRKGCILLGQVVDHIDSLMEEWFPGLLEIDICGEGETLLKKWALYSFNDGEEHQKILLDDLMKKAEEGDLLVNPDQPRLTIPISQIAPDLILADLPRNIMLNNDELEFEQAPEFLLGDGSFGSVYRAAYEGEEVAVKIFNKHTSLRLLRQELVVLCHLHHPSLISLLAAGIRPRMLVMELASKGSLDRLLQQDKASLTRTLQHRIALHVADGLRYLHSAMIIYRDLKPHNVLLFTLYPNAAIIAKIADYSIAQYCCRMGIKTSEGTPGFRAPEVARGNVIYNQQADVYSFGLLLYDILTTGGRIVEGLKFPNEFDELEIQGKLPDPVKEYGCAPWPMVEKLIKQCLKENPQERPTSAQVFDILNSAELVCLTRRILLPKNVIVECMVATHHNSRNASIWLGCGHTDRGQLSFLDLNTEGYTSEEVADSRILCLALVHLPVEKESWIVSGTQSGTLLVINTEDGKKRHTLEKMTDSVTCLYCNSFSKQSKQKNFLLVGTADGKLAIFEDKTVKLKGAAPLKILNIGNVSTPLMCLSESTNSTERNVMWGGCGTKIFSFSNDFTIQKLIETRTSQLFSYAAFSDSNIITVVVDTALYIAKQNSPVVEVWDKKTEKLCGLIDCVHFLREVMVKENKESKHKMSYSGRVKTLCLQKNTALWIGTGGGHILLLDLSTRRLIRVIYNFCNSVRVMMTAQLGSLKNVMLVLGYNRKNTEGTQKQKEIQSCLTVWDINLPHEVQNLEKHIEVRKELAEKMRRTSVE
Chain of MLK1 (P80192 whole entry, looked up): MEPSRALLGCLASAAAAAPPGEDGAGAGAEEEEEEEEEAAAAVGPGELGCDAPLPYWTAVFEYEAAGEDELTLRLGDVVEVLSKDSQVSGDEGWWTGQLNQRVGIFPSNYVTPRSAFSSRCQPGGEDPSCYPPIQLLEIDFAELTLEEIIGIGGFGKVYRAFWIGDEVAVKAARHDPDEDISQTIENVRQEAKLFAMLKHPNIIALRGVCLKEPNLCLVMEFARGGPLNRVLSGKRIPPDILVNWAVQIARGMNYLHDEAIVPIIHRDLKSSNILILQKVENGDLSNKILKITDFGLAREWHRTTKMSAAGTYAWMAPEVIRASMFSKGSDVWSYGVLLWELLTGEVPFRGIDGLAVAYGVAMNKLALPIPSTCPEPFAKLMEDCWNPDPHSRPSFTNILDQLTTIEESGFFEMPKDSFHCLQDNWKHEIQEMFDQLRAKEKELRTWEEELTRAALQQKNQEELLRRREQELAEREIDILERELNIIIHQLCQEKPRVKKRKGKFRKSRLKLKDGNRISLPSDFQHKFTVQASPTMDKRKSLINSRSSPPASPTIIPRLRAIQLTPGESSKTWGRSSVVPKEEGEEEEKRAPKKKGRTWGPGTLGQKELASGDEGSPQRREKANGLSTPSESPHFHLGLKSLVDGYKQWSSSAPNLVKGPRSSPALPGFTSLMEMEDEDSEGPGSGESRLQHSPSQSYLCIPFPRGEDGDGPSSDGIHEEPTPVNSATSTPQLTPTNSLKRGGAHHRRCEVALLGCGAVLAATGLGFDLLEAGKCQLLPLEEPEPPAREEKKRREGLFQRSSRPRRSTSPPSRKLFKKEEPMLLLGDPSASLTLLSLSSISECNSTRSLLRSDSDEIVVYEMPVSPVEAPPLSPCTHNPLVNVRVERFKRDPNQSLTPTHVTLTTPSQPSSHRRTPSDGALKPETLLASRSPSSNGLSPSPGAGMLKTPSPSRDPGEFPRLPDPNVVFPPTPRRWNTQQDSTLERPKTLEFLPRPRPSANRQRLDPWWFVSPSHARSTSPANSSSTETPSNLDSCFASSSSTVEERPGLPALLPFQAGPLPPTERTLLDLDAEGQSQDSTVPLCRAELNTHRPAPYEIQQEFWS
Chain of LRRK2 wild-type (Q5S007 whole entry, looked up): as the sequence (Q5S007 whole entry G2019S, looked up) above, with S2019G counted along it
Chain of MLK3 (Q16584 whole entry, looked up): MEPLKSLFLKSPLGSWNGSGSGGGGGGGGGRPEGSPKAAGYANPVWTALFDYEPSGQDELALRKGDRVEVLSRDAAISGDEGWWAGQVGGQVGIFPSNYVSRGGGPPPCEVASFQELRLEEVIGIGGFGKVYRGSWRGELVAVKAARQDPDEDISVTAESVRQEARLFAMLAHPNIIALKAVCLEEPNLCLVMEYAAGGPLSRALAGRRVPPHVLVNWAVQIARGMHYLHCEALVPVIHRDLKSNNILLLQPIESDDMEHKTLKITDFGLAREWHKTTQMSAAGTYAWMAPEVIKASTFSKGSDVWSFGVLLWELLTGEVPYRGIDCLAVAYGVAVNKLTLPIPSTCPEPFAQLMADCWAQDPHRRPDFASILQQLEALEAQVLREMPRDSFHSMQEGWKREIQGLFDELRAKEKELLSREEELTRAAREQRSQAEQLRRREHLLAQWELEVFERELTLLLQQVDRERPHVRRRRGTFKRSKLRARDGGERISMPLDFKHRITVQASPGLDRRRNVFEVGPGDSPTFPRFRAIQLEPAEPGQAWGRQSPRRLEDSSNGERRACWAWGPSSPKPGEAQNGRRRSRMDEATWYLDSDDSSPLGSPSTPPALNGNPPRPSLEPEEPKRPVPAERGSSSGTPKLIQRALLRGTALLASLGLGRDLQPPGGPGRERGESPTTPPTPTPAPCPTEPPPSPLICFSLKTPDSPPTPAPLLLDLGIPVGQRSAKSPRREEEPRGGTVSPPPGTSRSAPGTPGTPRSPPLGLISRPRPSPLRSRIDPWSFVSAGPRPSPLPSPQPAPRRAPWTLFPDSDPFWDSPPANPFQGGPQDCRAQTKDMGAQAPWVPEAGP

SMILES: CCS(=O)(=O)N1CC[C@H](Nc2c(Br)cnc3[nH]c(-c4cc(C)n(-c5ccccc5)c4C)nc23)C1 [Example 25, (S)-6-bromo-2-(2,5-dimethyl-1-phenyl-1H-pyrrol-3-yl)-N-(1-(ethylsulfonyl)pyrrolidine-3-yl)-3H-imidazo[4,5-b]pyridine-7-amine]
- IC50 [1]: 71 nM
- inhibition at 10 µM [2, 17]: 10 to 50%
- inhibition at 10 µM ([3]; 10 μM, 72 hours, CCK-8): > 50%
- IC50 [4]: 26 nM
- remaining binding at 0.1 µM [5]: 15%
- remaining binding at 0.5 µM [5]: 3.3%
- remaining binding at 0.1 µM [6]: 49%
- remaining binding at 0.5 µM [6]: 17%
- inhibition at 10 µM [7, 18]: > 50%
- IC50 [8]: 250 nM

SMILES: Cc1cc(-c2nc3c(Nc4cccc(S(N)(=O)=O)c4)c(Br)cnc3[nH]2)c(C)n1-c1ccc(C(=O)N2CCOCC2)cc1 [Example 27, 3-((6-bromo-2-(2,5-dimethyl-1-(4-(morpholine-4-carbonyl)phenyl)-1H-pyrrol-3-yl)-3H-imidazo[4,5-b]pyridine-7-yl)amino)benzenesulfonamide]
- IC50 [1]: 176 nM
- inhibition at 10 µM [2, 17]: < 10%
- inhibition at 10 µM ([3]; 10 μM, 72 hours, CCK-8): 10 to 50%
- IC50 [4]: 20 nM
- inhibition at 10 µM [7, 18]: < 10%
- IC50 [8]: 178 nM

SMILES: CCS(=O)(=O)N1CC[C@H](Nc2c(Br)cnc3nc(-c4cc(C)n(-c5cccc(C(N)=O)c5)c4C)[nH]c23)C1 [Example 20, (S)-3-(3-(6-bromo-7-((1-(ethylsulfonyl)pyrrolidine-3-yl)amino)-1H-imidazo[4,5-b]pyridine-2-yl)-2,5-dimethyl-1H-pyrrol-1-yl)benzamide]
- IC50 [1]: 31 nM
- inhibition at 10 µM ([2]; U-937, 72 h): < 10%
- inhibition at 10 µM ([3]; 72 h): 10 to 50%
- IC50 [4]: 14 nM
- inhibition at 10 µM [7, 19]: 10 to 50%
- IC50 [8]: 217 nM

SMILES: CCS(=O)(=O)N1CC[C@H](Nc2c(Br)cnc3nc(-c4cc(C)n(-c5ccc(OCCOC)cc5)c4C)[nH]c23)C1 [Example 22, (S)-6-bromo-N-(1-(ethylsulfonyl)pyrrolidine-3-yl)-2-(1-(4-(2-methoxyethoxy)phenyl)-2,5-dimethyl-1H-pyrrol-3-yl)-1H-imidazo[4,5-b]pyridine-7-amine]
- IC50 [1]: 38 nM
- inhibition at 10 µM ([3]; 10 μM, 72 hours, CCK-8): 10 to 50%
- IC50 [4]: 17 nM
- IC50 [8]: 186 nM

SMILES: CCS(=O)(=O)N1CC[C@H](Nc2c(Br)cnc3nc(-c4cc(C)n(-c5ccc(S(N)(=O)=O)cc5)c4C)[nH]c23)C1 [Example 24, (S)-4-(3-(6-bromo-7-((1-(ethylsulfonyl)pyrrolidine-3-yl)amino)-1H-imidazo[4,5-b]pyridine-2-yl)-2,5-dimethyl-1H-pyrrol-1-yl)benzenesulfonamide]
- IC50 [1]: 29 nM
- inhibition at 10 µM ([2]; U-937, 72 h): 10 to 50%
- inhibition at 10 µM ([3]; 72 h): 10 to 50%
- IC50 [4]: 20 nM
- inhibition at 10 µM [7, 19]: 10 to 50%
- IC50 [8]: 95 nM

SMILES: CCS(=O)(=O)N1CC[C@H](Nc2c(Br)cnc3nc(-c4cc(C)n(-c5cccc(OCCN6CCOCC6)c5)c4C)[nH]c23)C1 [Example 3, (S)-6-bromo-2-(2,5-dimethyl-1-(3-(2-morpholinoethoxy)phenyl)-1H-pyrrol-3-yl)-N-(1-(ethylsulfonyl)pyrrolidine-3-yl)-1H-imidazo[4,5-b]pyridine-7-amine]
- inhibition at 10 µM ([9]; 10 μM, 72 hours, CCK-8, read-out: Cancer cell proliferation inhibitory activity Hs746T): > 50%
- inhibition at 10 µM ([10]; A549, 10 μM, 72 hours, CCK-8, read-out: Cancer cell proliferation inhibitory activity A549): 10 to 50%
- inhibition at 10 µM [2, 17]: 10 to 50%
- inhibition at 10 µM [11]: > 50%
- remaining binding at 0.1 µM [5]: 3.5%
- remaining binding at 0.5 µM [5]: 0.9%
- remaining binding at 0.1 µM [6]: 17%
- remaining binding at 0.5 µM [6]: 3.1%
- inhibition at 10 µM [12]: > 50%
- inhibition at 10 µM [13]: 10 to 50%
- Relative degree of expression inhibition (%) Fibronectin-1 [14]: 72.85%
- inhibition at 10 µM [7, 18]: > 50%
- inhibition at 10 µM [15]: > 50%
- Relative degree of expression inhibition (%) TGF-β1 [16]: 109.05%

SMILES: CCS(=O)(=O)N1CC[C@H](Nc2c(Br)cnc3[nH]c(-c4cc(C)n(-c5ccc(C(=O)N6CCOCC6)cc5)c4C)nc23)C1 [Example 5, (S)-(4-(3-(6-bromo-7-((1-(ethylsulfonyl)pyrrolidine-3-yl)amino)-3H-imidazo[4,5-b]pyridine-2-yl)-2,5-dimethyl-1H-pyrrol-1-yl)phenyl) (morpholino) methanone]
- IC50 [4]: 6 nM
- IC50 [8]: 92 nM

SMILES: CCS(=O)(=O)N1CC[C@H](Nc2c(Br)cnc3[nH]c(-c4cc(C)n(-c5cccc(C(=O)N6CCOCC6)c5)c4C)nc23)C1 [Example 6, (S)-(3-(3-(6-bromo-7-((1-(ethylsulfonyl)pyrrolidine-3-yl)amino)-3H-imidazo[4,5-b]pyridine-2-yl)-2,5-dimethyl-1H-pyrrol-1-yl)phenyl) (morpholino) methanone]
- IC50 [4]: 6 nM
- IC50 [8]: 181 nM

SMILES: CCNS(=O)(=O)c1cccc(-n2c(C)cc(-c3nc4ncc(Br)c(N[C@H]5CCN(S(=O)(=O)CC)C5)c4[nH]3)c2C)c1 [Example 19, (S)-3-(3-(6-bromo-7-((1-(ethylsulfonyl)pyrrolidine-3-yl)amino)-1H-imidazo[4,5-b]pyridine-2-yl)-2,5-dimethyl-1H-pyrrol-1-yl)-N-ethylbenzenesulfonamide]
- IC50 [1]: 36 nM
- inhibition at 10 µM ([2]; U-937, 72 h): > 50%
- inhibition at 10 µM ([3]; 72 h): > 50%
- IC50 [4]: 14 nM
- inhibition at 10 µM [7, 19]: > 50%
- IC50 [8]: 90 nM

SMILES: CCS(=O)(=O)N1CC[C@H](Nc2c(Br)cnc3nc(-c4cc(C)n(-c5cccc(S(=O)(=O)NC)c5)c4C)[nH]c23)C1 [Example 18, (S)-3-(3-(6-bromo-7-((1-(ethylsulfonyl)pyrrolidine-3-yl)amino)-1H-imidazo[4,5-b]pyridine-2-yl)-2,5-dimethyl-1H-pyrrol-1-yl)-N-methylbenzenesulfonamide]
- inhibition at 10 µM ([9]; 72 h, read-out: Cancer cell proliferation inhibitory activity Hs746T): 10 to 50%
- inhibition at 10 µM ([10]; A549, 72 h, read-out: Cancer cell proliferation inhibitory activity A549): 10 to 50%
- IC50 [1]: 75 nM
- inhibition at 10 µM ([3]; 72 h): > 50%
- IC50 [4]: 13 nM
- IC50 [8]: 109 nM

SMILES: CCS(=O)(=O)N1CC[C@H](Nc2c(Br)cnc3nc(-c4cc(C)n(-c5cccc(OCCOC)c5)c4C)[nH]c23)C1 [Example 21, (S)-6-bromo-N-(1-(ethylsulfonyl)pyrrolidine-3-yl)-2-(1-(3-(2-methoxyethoxy)phenyl)-2,5-dimethyl-1H-pyrrol-3-yl)-1H-imidazo[4,5-b]pyridine-7-amine]
- IC50 [1]: 75 nM
- inhibition at 10 µM ([2]; U-937, 72 h): 10 to 50%
- inhibition at 10 µM ([3]; 72 h): > 50%
- IC50 [4]: 15 nM
- inhibition at 10 µM [7, 19]: 10 to 50%
- IC50 [8]: 243 nM

— patent US12545673B2, “Imidazopyridine derivative and pharmaceutical composition comprising same as active ingredient” (TSD LIFE SCIENCES CO., LTD., priority 2019, dated 2026)
